Measured values as given in patent US8263624B2, “Aryl-substituted heterocycles, and use thereof” (Bayer Intellectual Property GmbH, priority 2006, dated 2012).
Structures can show the parent of a compound that is named as a salt.

Target: T1, human factor Xa (Homo sapiens, UniProt P00742)
T1 construct: factor Xa, which is formed from the proenzyme factor X
Experiment: Determination of the factor Xa inhibition (fluorogenic substrate Boc-Ile-Glu-Gly-Arg-AMC)
Assay type: biochemical
Details: human factor Xa 1.3 nmol/l, 15 min preincubation at 22° C., substrate 5 μmol/l, pH 7.4
Protocol: • a.1) Determination of the Factor Xa Inhibition
In order to determine the factor Xa inhibition of the substances listed above, a biochemical test system is set up, in which the conversion of a factor Xa substrate is used to determine the enzymatic activity of human factor Xa. Here Factor Xa cleaves aminomethylcoumarin, whose fluorescence is measured, from the peptidic substrate. The determinations are carried out in microtitre plates.
Substances to be tested, in various concentrations, are dissolved in dimethyl sulphoxide and incubated for 15 min at 22° C. with human factor Xa (1.3 nmol/l dissolved in 50 mmol/l of Tris buffer [C,C,C-tris(hydroxymethyl)aminomethane], 100 mmol/l NaCl, 0.1% BSA [bovine serum albumin], pH 7.4). The substrate (5 μmol/l of Boc-Ile-Glu-Gly-Arg-AMC from Bachem) is then added. After an incubation time of 30 min, the sample is excited at a wavelength of 360 nm, and the emission at 460 nm is measured. The measured emissions of the test batches with test substance are compared to the control batches without test substance (only dimethyl sulphoxide instead of test substance in dimethyl sulphoxide), and IC50 values are calculated from the concentration/activity relationships.

T1 sequence (P00742 235-488 limits assumed): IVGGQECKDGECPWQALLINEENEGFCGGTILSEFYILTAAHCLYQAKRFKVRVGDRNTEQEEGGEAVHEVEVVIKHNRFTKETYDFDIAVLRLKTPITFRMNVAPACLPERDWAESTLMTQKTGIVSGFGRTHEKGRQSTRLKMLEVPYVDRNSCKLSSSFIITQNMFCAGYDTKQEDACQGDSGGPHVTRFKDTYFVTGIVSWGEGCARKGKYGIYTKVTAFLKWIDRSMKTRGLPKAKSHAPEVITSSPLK
T1 sequence (P00742 41-179 partner limits assumed): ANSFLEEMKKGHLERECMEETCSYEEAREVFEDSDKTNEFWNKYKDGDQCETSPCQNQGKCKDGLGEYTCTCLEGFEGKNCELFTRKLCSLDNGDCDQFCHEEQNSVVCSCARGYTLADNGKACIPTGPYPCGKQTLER

Row | Structure (SMILES) | IC50 [nM]
1 | O=C(NCc1cn(-c2ccc(N3CCOCC3=O)cc2)nc1-c1ccccc1)c1ccc(Cl)s1 [Example 1, 5-Chloro-N-({1-[4-(3-oxomorpholin-4-yl)phenyl]-3-phenyl-1H-pyrazol-4-yl}methyl)thiophene-2-carboxamide] | 0.7
2 | Cc1cc(-n2cc(CNC(=O)c3ccc(Cl)s3)c(-c3ccccc3)n2)ccc1N1CCOCC1=O [Example 2, 5-Chloro-N-({1-[3-methyl-4-(3-oxomorpholin-4-yl)phenyl]-3-phenyl-1H-pyrazol-4-yl}methyl)-thiophene-2-carboxamide] | 0.7
3 | O=C(NCc1cn(-c2ccc(N3CCOCC3=O)cc2)nc1-c1cccnc1)c1ccc(Cl)s1 [Example 3, 5-Chloro-N-({1-[4-(3-oxomorpholin-4-yl)phenyl]-3-pyridin-3-yl-1H-pyrazol-4-yl}methyl)thiophene-2-carboxamide hydrochloride] | 0.8
